One data set relates to CCRF-CEM. Kind of data set: XTT cytotoxicity assay, CCRF-CEM cells. It is filed as cell-based, human. To be noted: for IC50: Homo sapiens, CCRF-CEM. How it is done:
(§1) XTT assay following 72 h inhibition. CCRF-CEM is a human T-cell acute lymphoblastic leukemia cell line. The CCRF-CEM/VBL100, CCRF-CEM/VM1, and CCRF-CEM/Taxol cell lines all overexpress P-glycoprotein and display a multidrug resistance phenotype to MDR-associated oncolytics. (Chou et al. Proc. Natl. Acad. Sci. USA 98:8113, 2001; incorporated herein by reference).
(§2) A typical experiment invovles culturing cells (e.g., CCRF-CEM) at an initial density of 2-5×10^4 cells per ml. They are maintained in a 5% CO2-humidified atmosphere at 37° C. in RPMI medium 1640 (GIBCO/BRL) containing penicillin (100 units/ml), streptomycin (100 μg/ml) (GIBCO/BRL), and 5% heat-inactivated fetal bovine serum. For cells that were grown in suspension (such as CCRF-CEM and its sublines), cytotoxicitiy is measured by using the 2,-3-bis(2-methoxy-4-nitro-5-sulfophenyl)-5 carboxanilide)-2H terazodium hydroxide (XTT)-microculture tetrazonium method in duplicate in 96-well microtiter plates. For both methods, the absorbance of each well is measured with a microplate reader (EL-340, Bio-Tek, Burlington, Vt.). Each run entails six or seven concentrations of the tested drugs. Dose-effect relationship data are analyzed with the median-effect plot.
(§3) The CCRF-CEM human T cells, acute lymphoblastic leukemic cells, its teniposide-resistant subline (CCRF-CEM/VM1) and vinblastine-resistant subline (CCRF-CEM/VBL100) are obtained from W. T. Beck (University of Illinois, Chicago, Ill.).
(Tetrazolium assays rely on reduction of a dye to a coloured formazan, in cell work by metabolically active cells.)

The subject of the next data set is CCRF-CEM/VBL100. Put plainly: XTT cytotoxicity assay, vinblastine-resistant CCRF-CEM/VBL100 cells. The class given is cell-based, human. The settings on record: Homo sapiens, CCRF-CEM. As to the method: as §1, §2, §3
The test system of another data set is CCRF-CEM/VM1. Put plainly: XTT cytotoxicity assay, teniposide-resistant CCRF-CEM/VM1 cells. It is filed as cell-based, human. The settings on record: Homo sapiens, CCRF-CEM. How it is done: as §1, §2, §3
For the next data set, the system named is CCRF-CEM/Taxol. Put plainly: XTT cytotoxicity assay, taxol-resistant CCRF-CEM/Taxol cells. The class given is cell-based, human. The settings on record: for IC50: Homo sapiens, CCRF-CEM. How it is done: as §1, §2
Another data set relates to tubulin. Kind of data set: Tubulin binding: formation of microtubules in the presence of the compounds. The class given is biochemical. From the text:
Indeed, the microtubule stabilizing ability closely parallels the observed cytotoxicity data.

Data set [1] in a line: Stability on exposure to murine plasma. The class given is in vitro ADME. The text has this: (§4) See Chou et al. Proc. Natl. Acad. Sci. USA 98:8113, 2001, incorporated herein by reference, for details.
(§5) However, the apparently disappointing murine in vivo results should be viewed in the context of reports that dEpoB itself evidenced a degree of bioinstability in murine plasma; yet had much longer plasma half-lives in higher organisms, including humans (Chou et al. J. Proc. Natl. Acad. Sci. USA 98:8113, 2001; incorporated herein by reference). The observed discrepancy in efficacy between mice and other mammals, including humans, has been ascribed to higher esterase levels in rodents.

The nature of data set [2]: Stability on exposure to human plasma. It is filed as in vitro ADME.
Excerpt: as §4, §5

Data set [3] relates to human mammary carcinoma MX-1. Kind of data set: Tumor xenograft in nude mice, 6 hr i.v. infusion. The settings on record: as compared to control mice, MX-1 xenograft, listed as epothilone 490. The class given is in vivo. How it is done: Athymic nude mice bearing the nu/nu gene are typically used for tumor xenografts. Outbred, Swiss-background mice were obtained from Charles River Laboratories. Male mice 8 weeks or older weighing 22 g and up were used for most experiments. The drug was administered via the tail vein for 6 hr.—i.v. infusion. Each individual mouse was confined in a perforated Falcon polypropylene tube restrainer for drug administration. Tumor volume was assessed by measuring length×width×height (or width) using a caliper. The programmable Harvard PHD2000 syringe pump (Harvard Apparatus) with multi-track was used for i.v. infusion. All animal studies were conducted in accordance with the guidelines of the National Institutes of Health “Guide for the Care and Use of Animals” and the protocol approved by the Memorial Sloan-Kettering Cancer Center's Institutional Animal Care and Use Committee. In keeping with the policy of this committee for the humane treatment of tumor-bearing animals, mice were euthanized when tumors reached ≧10% of their total body weight.
As depicted in FIGS. 14, 15, 16, and 17, Epo490 was tested in nude mice bearing human mammary carcinoma MX-1 following treatment with Epo490 or dEpoB (i.v. infusions for 6 hours). […] Tumor size and body weight were then measured using dosages of 30 mg/kg, 40 mg/kg or 50 mg/kg over 32 and 50 days.

Where two headings read alike, the source gives them in different places.

In the case of `CC1=C/C[C@@H](/C(C)=C/c2csc(C)n2)OC(=O)C[C@H](O)C(C)(C)C(=O)[C@H](C)[C@@H](O)[C@@H](C)C\C=C\1` [Epo490, 10,11-dehydro-12,13-desoxyepothilone B], in the data set on CCRF-CEM (Example 12, in words), the “activity in CCRF-CEM cell lines” value was “demonstrated activity”. For the same molecule, the IC50 in the data set on CCRF-CEM (Example 5 Table 1, 72 h inhibition, read-out: In vitro Cytotoxicities (IC50) CCRF-CEM(C)) came out at 0.025 µM; in the data set on CCRF-CEM (Example 9 table, read-out: Cell Growth Inhibition (IC50) CCRF-CEM), 0.009 µM; in the data set on CCRF-CEM (Example 11 Table 2, XTT assay following 72-h inhibition, read-out: In Vitro Cytotoxicities (IC50) CCRF-CEM) it was 0.025 µM; in the data set with CCRF-CEM/VBL100 (Example 5 Table 1, 72 h inhibition, read-out: In vitro Cytotoxicities (IC50) C/VBL100), 0.091 µM; in the data set on CCRF-CEM/VBL100 (Example 9 table, read-out: Cell Growth Inhibition (IC50) CCRF-CEM/VBL), 0.023 µM; with CCRF-CEM/VBL100 (Example 11 Table 2, XTT assay following 72-h inhibition, read-out: In Vitro Cytotoxicities (IC50) CCRF-CEM/VBL100) it was 0.091 µM. Moreover, the IC50 in the data set on CCRF-CEM/VM1 (Example 5 Table 1, 72 h inhibition, read-out: In vitro Cytotoxicities (IC50) C/VM1) is 35 nM; with CCRF-CEM/VM1 (Example 11 Table 2, XTT assay following 72-h inhibition, read-out: In Vitro Cytotoxicities (IC50) CCRF-CEM/VMI), 35 nM; in the data set with CCRF-CEM/Taxol (Example 5 Table 1, 72 h inhibition, read-out: In vitro Cytotoxicities (IC50) C/Taxol) it was 32 nM; with CCRF-CEM/Taxol (Example 9 table, read-out: Cell Growth Inhibition (IC50) CCRF-CEM/taxol) it was 13 nM; in the data set with CCRF-CEM/Taxol (Example 11 Table 2, XTT assay following 72-h inhibition, read-out: In Vitro Cytotoxicities (IC50) CCRF-CEM/TAXOL), 32 nM. Also, in the data set on CCRF-CEM/Taxol (Example 12, in words), the “activity in CCRF-CEM cell lines resistant to Taxol” value is on record as “demonstrated activity”. Besides, the “% Tubulin Binding” value in the data set on tubulin (Example 5 Table 1) and in the data set on tubulin (Microtubules formed in the presence of dEpoB is defined as 100%) was 89% in each case. For the same molecule, the “degradation in murine plasma” value in data set [1] (as compared to dEpoB (FIG. 21)) was “faster degradation”. Further, the “stability in human versus nude mice plasma” value in data set [2] (FIG. 21 legend) was “increased stability”. The “degradation in human plasma” value in data set [2] (after more than 3 hours of exposure in human plasma) was “no measurable degradation”. Further, the “inhibitory effect on the growth of the implanted tumors” value in data set [3] was “did not demonstrate a statistically significant inhibitory effect”.

As for `C/C(=C\c1csc(C)n1)[C@@H]1C/C=C(/C(F)(F)F)C/C=C/C[C@H](C)[C@H](O)[C@@H](C)C(=O)C(C)(C)[C@@H](O)CC(=O)O1` [27-Tn-F-[17]ddEpoB (22), 10,11-dehydro-13,14-desoxy-27-trifluoro-[17]epothilone B], the IC50 in the data set on CCRF-CEM (Example 6 table, XTT assay following 72 h inhibition, read-out: CCRF-CEM (IC50 (μM))) came to 0.068 µM; in the data set with CCRF-CEM/VBL100 (Example 6 table, XTT assay following 72 h inhibition, read-out: CCRF-CEM/VBL (IC50 (μM))), 0.191 µM. The “stability in mouse blood plasma” value in data set [1] (compared with the parent compound) is “more stable”.

Source of the values: patent publication US20030176368A1, “Synthesis of epothilones, intermediates thereto and analogues thereof” (priority 2001, published 2003).
